Structures can show the parent of a compound that is named as a salt. Where two headings read alike, the source gives them in different places.
Experiments:
[1] = tested on: ptosis (eye closure) induced by reserpine; assay: prevention of ptosis (eye closure) induced by reserpine in rats; type: in vivo, rat (male, Charles River CD strain)
Excerpt: Male rats of the Charles River CD strain weighing between 140 and 180 g were randomly separated into five rats in each cage and supplied with food and water ad libitum. Eighteen hours prior to initiation of the test four of the five rats were marked with a pen such that each rat was individually identifiable; food was then withdrawn. The following morning, two hours before the test, the rats were weighed and a semi-randomised code was used to allocate treatments to rats. The test commenced by orally administering either:
The degree of ptosis was scored […] later using the following observer rating system: 0=eye fully open, 1=eye 1/4closed, 2=eye 1/2closed, 3=eye 3/4closed, 4=eye fully closed. A mean ptosis score was then calculated for all identically treated rats usually comprising a group of eight rats. […] It is widely understoodby those skilled in the art that this test is indicative of compounds having antidepressant activity in humans.

dopamine reuptake sites = dopamine reuptake sites (Rattus norvegicus, UniProt P23977); assay: inhibition of [3H]dopamine uptake in vitro in rat striatal synaptosomes; type: biochemical, rat (male Charles River); details: [3H]dopamine (2.5 nM) uptake, 5 minutes at 37° C.; calculated from IC50; means ± sem of three independent determinations
dopamine reuptake sites, sequence (P23977 whole entry): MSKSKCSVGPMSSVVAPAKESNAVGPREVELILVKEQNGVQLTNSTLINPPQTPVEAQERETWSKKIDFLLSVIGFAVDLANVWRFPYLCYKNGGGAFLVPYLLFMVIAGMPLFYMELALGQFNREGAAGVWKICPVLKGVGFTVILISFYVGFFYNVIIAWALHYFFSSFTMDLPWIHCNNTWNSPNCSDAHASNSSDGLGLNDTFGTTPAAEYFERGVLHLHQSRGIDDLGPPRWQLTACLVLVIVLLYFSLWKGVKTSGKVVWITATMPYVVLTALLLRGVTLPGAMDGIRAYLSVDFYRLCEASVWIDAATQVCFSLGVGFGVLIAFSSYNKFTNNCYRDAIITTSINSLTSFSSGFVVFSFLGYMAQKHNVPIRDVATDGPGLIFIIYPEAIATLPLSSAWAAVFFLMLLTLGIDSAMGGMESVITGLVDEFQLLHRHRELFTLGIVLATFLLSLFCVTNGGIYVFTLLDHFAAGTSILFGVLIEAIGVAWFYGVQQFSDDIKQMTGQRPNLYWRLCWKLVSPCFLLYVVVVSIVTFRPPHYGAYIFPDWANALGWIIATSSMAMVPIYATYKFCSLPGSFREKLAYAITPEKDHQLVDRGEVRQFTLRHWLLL
Experimental: Striatal tissue from the brains of male Charles River rats weighing 150-250 g was homogenised in ice-cold 0.32M sucrose (1:10 w/v) using a motor driven teflon pestle (difference in diameter between mortar and pestle 0.5 mm). Nuclei and cell debris were removed by centrifugation at 1,500 g at 4° C. for 10 minutes. The pellet (P1) was discarded and the supernatant centrifuged at 18,000 g at 4° C. for 10 minutes. The crude synaptosomal pellet (P2) was resuspended in Krebs-Henseleit buffer (equivalent to 4.2 mg wet weight of tissue/ml).
Crude synaptosomes were incubated in a shaking water bath at 37° C. for 15 minutes. Aliquots (150 μl; equivalent to 0.625 mg wet weight of tissue/tube) were then added to tubes containing 275 μl of Krebs-Henseleit buffer and 50 μl of Krebs-Henseleit buffer (total uptake) or 50 μl of test compound (10 concentrations ranging from 10-11-10-4M) or 50 μl of GBR 12909 (10^-5M; non-specific uptake). Uptake was initiated by the addition of 25 μl of freshly prepared [3H]dopamine(2.5 nM), followed by vortexing and was continued for 5 minutes at 37° C. in the shaking water bath.
Uptake was terminated by filtration under vacuum through Skatron 11735 filters using a Skatron cell harvester. Filters were than washed with 8 ml ice-cold saline. The scored filter paper discs were punched into vials, scintillation fluid added and radioactivity determinedby liquid scintillation counting.
The percentage inhibition of specific uptake of the tritiated ligand was calculated for each concentration of test compound. Inhibition curves were then produced. The concentration of compounds which gave 50% inhibition of specific uptake (IC50) was obtained from the curve. The inhibition constant (Ki) was then calculated using the formula [formula] in which [L] is the concentration of tritiated ligand used and Km is the affinity of the uptake site for the ligand. The Ki values for compounds for formula I and III are given in Table 1 as the means ± sem of three independent determinations.

[2] = Rattus norvegicus, po, 3 h, dose causing 50% prevention of reserpine-induced ptosis, test compound oral, reserpine 0.75 mg/kg intravenous, scored three hours later, read-out: ED50

Ki (dopamine reuptake sites) | SMILES | ED50 ([1]; dose causing 50% prevention of reserpine-induced ptosis, test compound oral, reserpine 0.75 mg/kg intravenous, scored three hours later, citrate) | ED50 [1, 2] | ED50 ([1]; Rattus norvegicus, po, 3 h)
– | CN(C)CCCSCC(O)C1(c2ccc(Cl)c(Cl)c2)CCC1.O=C(O)CC(O)(CC(=O)O)C(=O)O (single isomer, unassigned; (+)) [Example 17, (+)-1-[1-(3,4-dichlorophenyl)cyclobutyl]-2-[3-(dimethylamino)-propylthio]ethanol citrate] | 2.5 mg/kg | – | –
– | CN(C)CCCSCC(O)C1(c2ccc(Cl)c(Cl)c2)CCC1.O=C(O)CC(O)(CC(=O)O)C(=O)O (single isomer, unassigned; (-)) [Example 16, (-)-1-[1-(3,4-dichlorophenyl)cyclobutyl]-2-[3-(dimethylamino)propylthio]ethanol citrate] | – | 2.2 mg/kg | –
– | CN(C)CCSCC(=O)C1(c2ccc(Cl)c(Cl)c2)CCC1.Cl [Example 1, 1-[1-(3,4-dichlorophenyl)cyclobutyl]-2-[2-(dimethyl-amino)ethylthio]ethanone hydrochloride] | – | 8.5 mg/kg | –
– | CN(C)CC[S+]([O-])CC(=O)C1(c2ccc(Cl)c(Cl)c2)CCC1.Cl (stereo not drawn) [Example 2, 1-[1-(3,4-dichlorophenyl)cyclobutyl]-2-[2-(dimethylamino)ethylsulphinyl]ethanone hydrochloride] | – | 7.7 mg/kg | –
– | CN(C)CCS(=O)(=O)CC(=O)C1(c2ccc(Cl)c(Cl)c2)CCC1.Cl [Example 3, 1-[1-(3,4-dichlorophenyl)cyclobutyl]-2-[2-(dimethylamino)ethylsulphonyl]ethanone hydrochloride] | – | 5.9 mg/kg | –
– | CCN(CC)CCSCC(=O)C1(c2ccc(Cl)c(Cl)c2)CCC1 [Example 4, 1-[1-(3,4-dichlorophenyl)cyclobutyl]-2-[2-(diethylamino)ethylthio]ethanonehydrochloride] | – | 9.7 mg/kg | –
– | CN(CCSCC(=O)C1(c2ccc(Cl)c(Cl)c2)CCC1)Cc1ccccc1.Cl [Example 5, 2-[2-(N-benzyl-N-methylamino)ethylthio]-1-[1-(3,4-dichlorophenyl)cyclobutyl]ethanone hydrochloride] | – | 16.4 mg/kg | –
– | CN(C)CCSCC(O)C1(c2ccc(Cl)c(Cl)c2)CCC1.Cl (stereo not drawn) [Example 6, 1-[1-(3,4-dichlorophenyl)cyclobutyl]-2-[2-(dimethyl-amino)ethylthio]ethanol hydrochloride] | – | 5.7 mg/kg | –
13.4 ± 0.1 nM | CN(C)CCCS(=O)(=O)CC(=O)C1(c2ccc(Cl)c(Cl)c2)CCC1.Cl [Example 8, 1-[1-(3,4-dichlorophenyl)cyclobutyl]-2-[3-(dimethylamino)propylsulphonyl]ethanone hydrochloride] | – | 3.4 mg/kg | –
7.3 ± 1.6 nM | CN(C)CCCSCC(O)C1(c2ccc(Cl)c(Cl)c2)CCC1 (stereo not drawn) [Example 9, 1-[1-(3,4-dichlorophenyl)cyclobutyl]-2-[3-(dimethylamino)propyl-thio]ethanol] | – | 4.8 mg/kg | –
7.2 ± 1 nM | CC(CSCC(=O)C1(c2ccc(Cl)c(Cl)c2)CCC1)CN(C)C (stereo not drawn) [Example 10, 1-[1-(3,4-dichlorophenyl)cyclobutyl]-2-[3-(dimethylamino)-2-methylpropylthio]ethanone] | – | 8.7 mg/kg | –
– | CN(C)CCSCC(=O)C1(c2ccc3ccccc3c2)CCC1.Cl [Example 11, 2-[2-(dimethylamino)ethylthio]-1-[1-(2-naphthyl)cyclobutyl]ethanone hydrochloride] | – | 24.1 mg/kg | –
– | CN(C)CCCSCC(=O)C1(c2cccc(Cl)c2)CCC1.Cl [Example 12, 1-[1-(3-chlorophenyl)cyclobutyl]-2-[3-(dimethylamino)propylthio]ethanone hydrochloride] | – | 23.4 mg/kg | –
6.5 ± 1 nM | CN(C)CCCCSCC(=O)C1(c2ccc(Cl)c(Cl)c2)CCC1.Cl [Example 13, 1-[1-(3,4-dichlorophenyl)cyclobutyl]-2-[4-(dimethylamino)-butylthio]ethanone hydrochloride] | – | 5.9 mg/kg | –
13.4 ± 2.1 nM | CCCN(CCC)CCCSCC(=O)C1(c2ccc(Cl)c(Cl)c2)CCC1 [Example 14, 1-[1-(3,4-dichlorophenyl)cyclobutyl]-2-[3-(dipropylamino)propylthio]ethanone] | – | 7.3 mg/kg | –
6.9 ± 0.6 nM | CC(CSCC(O)C1(c2ccc(Cl)c(Cl)c2)CCC1)CN(C)C (stereo not drawn) [Example 19, 1-[1-(3,4-dichlorophenyl)cyclobutyl]-2-[3-(dimethylamino)-2-methylpropylthio]ethanol] | – | 6.9 mg/kg | –
4.4 ± 0.2 nM | CN(C)CCCSCC(=O)C1(c2ccc(Cl)c(Cl)c2)CCCC1.Cl [Example 20, 1-[1-(3,4-dichlorophenyl)cyclopentyl]-2-[3-(dimethylamino)propylthio]ethanone hydrochloride] | – | 3.7 mg/kg | –

SMILES | Ki (dopamine reuptake sites) | ED50 ([1]; dose causing 50% prevention of reserpine-induced ptosis, test compound oral, reserpine 0.75 mg/kg intravenous, scored three hours later, citrate) | ED50 [1, 2] | ED50 ([1]; Rattus norvegicus, po, 3 h)
CN(C)CCCSCC(=O)C1(c2ccc(Cl)c(Cl)c2)CCC1.Cl [Example 7, 1-[1-(3,4-dichlorophenyl)-cyclobutyl]-2-[3-(dimethylamino)propylthio]ethanone hydrochloride] | 5 ± 0.5 nM | – | 4.2 mg/kg | –
CN(C)CCCSCC(=O)C1(c2ccc(Cl)c(Cl)c2)CCC1.O=C(O)/C=C/C(=O)O [Example 15, 1-[1-(3,4-dichloro-phenyl)cyclobutyl]-2-[3-(dimethylamino)propylthio]ethanone fumarate] | 3.7 ± 0.4 nM | – | 4 mg/kg | –
CN(C)CCCSCC(=O)C1(c2ccc(Cl)c(Cl)c2)CCC1.O=C(O)CC(O)(CC(=O)O)C(=O)O [Example 18, 1-[1-(3,4-dichlorophenyl)cyclobutyl]-2-[3-(dimethylamino)propylthio]ethanone citrate] | 4.2 ± 0.4 nM | – | – | 4.9 mg/kg
